# Target: T1, human APJ receptor (Homo sapiens, UniProt P35414)
# T1 construct: expressed in transfected cells; host or cells: HEK293
# T1 sequence (P35414 1-380): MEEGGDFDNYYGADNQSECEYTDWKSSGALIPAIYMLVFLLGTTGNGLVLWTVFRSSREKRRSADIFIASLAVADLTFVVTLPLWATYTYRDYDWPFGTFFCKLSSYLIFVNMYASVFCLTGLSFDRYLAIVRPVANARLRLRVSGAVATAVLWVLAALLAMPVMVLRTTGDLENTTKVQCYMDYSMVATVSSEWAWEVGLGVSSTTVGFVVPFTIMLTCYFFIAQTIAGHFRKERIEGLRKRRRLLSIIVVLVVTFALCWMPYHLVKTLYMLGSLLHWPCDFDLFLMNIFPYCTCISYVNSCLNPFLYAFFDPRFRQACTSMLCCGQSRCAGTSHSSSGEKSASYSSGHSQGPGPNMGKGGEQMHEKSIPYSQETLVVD
# Assay: Intracellular cAMP accumulation assay (APJ hcAMP, HTRF)
# Type: cell-based
# Conditions: HEK293 cells stably expressing human APJ receptor; inhibition of forskolin-mediated cAMP production; read-out: APJ cAMP Potency range
# In short: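 HEK293 cells stably expressing the receptor (5,000/well) treated with compound plus […] and 2 μM forskolin for 30 min at room temperature; cAMP by HTRF against a cAMP standard curve. EC50 from variable-slope sigmoidal fit; Ymax as % of (Pyr1)apelin-13 inhibition.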
row,EC50,Structure (SMILES)
1,0.01 to 10 nM,"CC[C@@H](c1cc(F)cc(F)c1)n1c(-c2ccn(CC)n2)nc(=O)c(Cc2ccc(-c3ccc(F)nc3C)cc2)c1O [Example 134, 1-[(1S)-1-(3,5-difluorophenyl)propyl]-2-(1-ethyl-1H-pyrazol-3-yl)-5-{[4-(6-fluoro-2-methylpyridin-3-yl)phenyl]methyl}-6-hydroxy-1,4-dihydropyrimidin-4-one]"
2,0.01 to 10 nM,"CC[C@@H](c1cc(F)cc(F)c1)n1c(-c2ccn(CC)n2)nc(=O)c(Cc2ccc(-c3ccc(F)nc3)cc2)c1O [Example 135, 1-[(1S)-1-(3,5-difluorophenyl)propyl]-2-(1-ethyl-1H-pyrazol-3-yl)-5-{[4-(6-fluoropyridin-3-yl)phenyl]methyl}-6-hydroxy-1,4-dihydropyrimidin-4-one]"
3,0.01 to 10 nM,"CC[C@@H](c1cc(F)cc(F)c1)n1c(-c2ccn(CC)n2)nc(=O)c(Cc2ccc(-c3ccncc3C)cc2)c1O [Example 136, 1-[(1S)-1-(3,5-difluorophenyl)propyl]-2-(1-ethyl-1H-pyrazol-3-yl)-6-hydroxy-5-{[4-(3-methylpyridin-4-yl)phenyl]methyl}-1,4-dihydropyrimidin-4-one]"

# — patent publication US11390616B2 (BRISTOL-MYERS SQUIBB COMPANY, priority 2015, dated 2022)
